The values below are quoted from earlier work in patent US20030219468A1 (priority 2002, published 2003).

For series [1] the following is noted: cold water.
For series [2] the following is noted: sorbic acid and its salts.
The test system of a further series is Plasmodium berghei. The settings on record: mice, toward Plasmodium berghei.

Consider `C/C=C/C=C/C(=O)O` [Sorbic acid, trans,trans-2,4-hexadienoic acid], for which the solubility entry in series [1] was “only slightly soluble”. Also, the microbiostatic antimycotic activity result in series [2] is recorded as “very high microbiostatic antimycotic activity”. Regarding Curdlan, the immunizing activity entry with Plasmodium berghei was “immunizing activity”.
